Each structure is given as a SMILES string.

Results on 22 molecules are retold here after patent publication US20130261077A1 (priority 2012, published 2013).

In one assay the target is T1, FimH-CRD (Escherichia coli, UniProt P08191).
T1 construct: The first 177 amino acids of the FimH protein; thrombin tag (printed as 'fusion protein with thrombin') (cleaved yes); made in house; host or cells: bacteria (pET21b plasmid)
T1 sequence (P08191 22-177): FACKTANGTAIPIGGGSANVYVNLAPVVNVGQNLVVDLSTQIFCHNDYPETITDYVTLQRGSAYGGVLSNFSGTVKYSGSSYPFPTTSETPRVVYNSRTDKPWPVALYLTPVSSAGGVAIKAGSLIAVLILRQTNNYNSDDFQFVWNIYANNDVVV
Description: Competitive binding assay by fluorescence polarization, assay 2 (compounds prepared by robotics, plates frozen and thawed). On the procedure: The first 177 amino acids of the FimH protein were expressed as a fusion protein with thrombin in a pET21b plasmid in bacteria. This FimH protein sequence contains the carbohydrate recognition domain (CRD) and shall be termed FimH-CRD. Following bacterial expression of the protein, the FimH-CRD protein was purified to homogeneity and the thrombin tag removed by protease cleavage. A competitive binding assay by fluorescence polarization was performed using 5 nM of the Alexa 647 mannoside probe and 60 nM of the FimH-CRD. The samples are assayed in a low volume 384 well microtiter plate in a final volume of 20 μl. The final assay buffer conditions are the following, 50 mM Tris-Cl, ph 7.0, 100 mM NaCl, 1 mM EDTA, 5 mM β-mercaptoethanol, 0.05% BSA and 2.5% DMSO. Two assays are performed for FimH, termed assay 1 or assay 2. The assay conditions are the same for both assays except the following: assay 1 has compounds prepared by manual dilution in a serial dilution factor with 12-point dose response while assay 2 has compounds prepared by a robotics system also through a serial dilution factor (12 point dose response) and initially prepared in duplicate in 384 well-Corning polypropylene round bottom plates. The assay 2 plates have compound which is then frozen and must be thawed prior to use. Initially the Alexa 647 probe and the FimH-CRD are added to the assay buffer and then 0.5 μl of test compound (assay 1 or 2) between 0.4 nM to 75 μM final concentration are added (12 point titration with 3-fold serial dilution). Control wells for the Alexa 647 probe are prepared with the same conditions except for the addition of the FimH-CRD protein. Plates are then incubated for 5 hrs at room temperature in the dark and under humid conditions to prevent drying. Plates are read using the SpectraMax Paradigm multi-mode plate reader and the appropriate fluorescent polarization detection cartridge (Alexa-647).
Alexa 647 mannoside probe is prepared using the similar procedure reported for FAM mannoside (Han, Z. et. al., 2010, J. Med. Chem., 53, 4779) and is described in the scheme below.
To a blue colored stirred solution of (2S,3S,4S,5S,6R)-2-(4-aminobutoxy)-6-(hydroxymethyl)tetrahydropyran-3,4,5-triol (2.21 mg, 0.009 mmol) and the (2E)-2-[(2E,4E)-5-[3,3-dimethyl-5-sulfonato-1-(3-sulfonatopropyl)indol-1-ium-2-yl]penta-2,4-dienylidene]-3-[6-(2,5-dioxopyrrolidin-1-yl)oxy-6-oxo-hexyl]-3-methyl-1-(3-sulfonatopropyl)indoline-5-sulfonate (Potassium Ion (3)) (4.9 mg, 0.0044 mmol) in DMF (44 μL) is added Et3N (5.4 mg, 7.0 μL, 0.053 mmol) at RT. The solution is stirred at room temperature over night, concentrated, dissolved in water and purified on 12 g C-18 silica gel cartridge on Isolera system using acetonitrile in water (0 to 40%, 10 CV) and followed by lyophilization to afford Alexa 647 mannoside probe (3.3 mg, 34%) as deep blue solid.
The Kd values of the compounds are determined from dose response curves using twelve concentrations per compound in duplicate. Curves are fitted to data points using Fluorescence Polarization competitive displacement analysis, and Kds are interpolated from the resulting curves using GraphPad Prism software, version […] (GraphPad software Inc., San Diego, Calif., USA).
Molecule `C#Cc1cccc([C@H]2O[C@H](CO)[C@@H](O)[C@H](O)[C@@H]2O)c1` [Compound 73, ((2R,3S,4R,5S,6R)-2-(3-Ethynylphenyl)-6-(hydroxymethyl)tetrahydropyran-3,4,5-triol)] had a dissociation constant (Kd) of 33.8 ± 13.6 nM. Turning to `C#Cc1ccc([C@H]2O[C@H](CO)[C@@H](O)[C@H](O)[C@@H]2O)cc1` [Compound 74, (2R,3S,4R,5S,6R)-2-(4-Ethynylphenyl)-6-(hydroxymethyl)tetrahydropyran-3,4,5-triol], the Kd was determined as 26.4 ± 14.3 nM. Same read-out and setting: then `C#Cc1cc([C@H]2O[C@H](CO)[C@@H](O)[C@H](O)[C@@H]2O)ccc1OC` [Compound 75, (2R,3S,4R,5S,6R)-2-(3-Ethynyl-4-methoxy-phenyl)-6-(hydroxymethyl)tetrahydropyran-3,4,5-triol], with 40 ± 11.3 nM; and `Cc1c(Br)cccc1[C@H]1O[C@H](CO)[C@@H](O)[C@H](O)[C@@H]1O` [Compound 76, (2R,3S,4R,5S,6R)-2-(3-Bromo-2-methyl-phenyl)-6-(hydroxymethyl)tetrahydropyran-3,4,5-triol], with 38.9 ± 13 nM.

The molecule `COc1cc([C@H]2O[C@H](CO)[C@@H](O)[C@H](O)[C@@H]2O)ccc1Br` [Compound 77] registered a Kd of 81.7 ± 11 nM. For `COC(=O)c1cccc(Cn2cc(-c3ccc([C@H]4O[C@H](CO)[C@@H](O)[C@H](O)[C@@H]4O)cc3)nn2)c1` [Compound 80, Methyl 3-[[4-[4-[(2R,3S,4R,5S,6R)-3,4,5-trihydroxy-6-(hydroxymethyl)tetrahydropyran-2-yl]phenyl]triazol-1-yl]methyl]benzoate], the Kd was 12.3 ± 6.2 nM. `OC[C@H]1O[C@H](c2ccc(-c3cn(Cc4ccccc4)nn3)cc2)[C@@H](O)[C@@H](O)[C@@H]1O` [Compound 81, (2R,3S,4R,5S,6R)-2-[4-(1-Benzyltriazol-4-yl)phenyl]-6-(hydroxymethyl)tetrahydropyran-3,4,5-triol]: the Kd was determined as 15.2 ± 4.3 nM. The same measure, in the same setting: then `COC(=O)c1cc(C#Cc2cc([C@H]3O[C@H](CO)[C@@H](O)[C@H](O)[C@@H]3O)ccc2OC)cc(C(=O)OC)c1` [Compound 82, Dimethyl 5-[2-[2-methoxy-5-[(2R,3S,4R,5S,6R)-3,4,5-trihydroxy-6-(hydroxymethyl)tetrahydropyran-2-yl]phenyl]ethynyl]benzene-1,3-dicarboxylate], with 23.2 ± 15.1 nM. Regarding `CNC(=O)c1cccc(C#Cc2cc([C@H]3O[C@H](CO)[C@@H](O)[C@H](O)[C@@H]3O)ccc2OC)c1` [Compound 83, 3-[2-[2-Methoxy-5-[(2R,3S,4R,5S,6R)-3,4,5-trihydroxy-6-(hydroxymethyl)tetrahydropyran-2-yl]phenyl]ethynyl]-N-methyl-benzamide], the Kd came out at 32.2 ± 5.8 nM. In the case of `CNC(=O)c1cc(C#Cc2cc([C@H]3O[C@H](CO)[C@@H](O)[C@H](O)[C@@H]3O)ccc2OC)cc(C(=O)NC)c1` [Compound 84, 5-[2-[2-Methoxy-5-[(2R,3S,4R,5S,6R)-3,4,5-trihydroxy-6-(hydroxymethyl)tetrahydropyran-2-yl]phenyl]ethynyl]-N1,N3-dimethyl-benzene-1,3-dicarboxamide], the equilibrium dissociation constant (Kd) is 27.5 ± 3.9 nM. The molecule `CNC(=O)c1cc(C#Cc2cccc([C@H]3O[C@H](CO)[C@@H](O)[C@H](O)[C@@H]3O)c2)cc(C(=O)NC)c1` [Compound 85, N1,N3-Dimethyl-5-[2-[3-[(2R,3S,4R,5S,6R)-3,4,5-trihydroxy-6-(hydroxymethyl)tetrahydropyran-2-yl]phenyl]ethynyl]benzene-1,3-dicarboxamide] came in with a Kd of less than 5 nM.

In the case of `COC(=O)c1cccc(C#Cc2cccc([C@H]3O[C@H](CO)[C@@H](O)[C@H](O)[C@@H]3O)c2)c1` [Compound 86, Methyl 3-[2-[3-[(2R,3S,4R,5S,6R)-3,4,5-trihydroxy-6-(hydroxymethyl)tetrahydropyran-2-yl]phenyl]ethynyl]benzoate], the Kd is 23.7 ± 10.8 nM. `COC(=O)c1ccc(C#Cc2cccc([C@H]3O[C@H](CO)[C@@H](O)[C@H](O)[C@@H]3O)c2)cc1` [Compound 87, Methyl 4-[2-[3-[(2R,3S,4R,5S,6R)-3,4,5-trihydroxy-6-(hydroxymethyl)tetrahydropyran-2-yl]phenyl]ethynyl]benzoate] had a Kd of 6.8 ± 0.2 nM.

A further assay concerns the target T1, FimH-CRD. Kind of assay: Competitive binding assay by fluorescence polarization, assay 1 (compounds prepared by manual serial dilution). In a few lines:
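Compounds at 0.4 nM–75 μM final (12 points, 3-fold steps, duplicate) compete with a 5 nM Alexa 647 mannoside probe for 60 nM FimH-CRD; 5 h room-temperature incubation in pH 7.0 Tris buffer with 2.5% DMSO, FP read-out, Kd from fitted curves. Assay 1 uses manual dilution, assay 2 robot-made frozen/thawed plates.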
`OC[C@H]1O[C@H](O[C@@H]2[C@H](O)[C@@H](c3cccc(OCCF)c3)O[C@H](CO)[C@H]2O)[C@@H](O)[C@@H](O)[C@@H]1O` [Compound 287, (2R,3S,4S,5S,6R)-2-[(2R,3R,4R,5R,6R)-2-[3-(2-Fluoroethoxy)phenyl]-3,5-dihydroxy-6-(hydroxymethyl)tetrahydropyran-4-yl]oxy-6-(hydroxymethyl)tetrahydropyran-3,4,5-triol] gave an IC50 of 107 nM and a Kd of 32.2 ± 8.5 nM. As to `CNC(=O)COc1cccc([C@H]2O[C@H](CO)[C@@H](O)[C@H](O[C@H]3O[C@H](CO)[C@@H](O)[C@H](O)[C@@H]3O)[C@@H]2O)c1` [Compound 288, 2-[3-[(2R,3R,4R,5R,6R)-3,5-dihydroxy-6-(hydroxymethyl)-4-[(2R,3S,4S,5S,6R)-3,4,5-trihydroxy-6-(hydroxymethyl)tetrahydropyran-2-yl]oxy-tetrahydropyran-2-yl]phenoxy]-N-methyl-acetamide], the IC50 was determined as 46 nM and the Kd was determined as 28.7 ± 25.6 nM.

Take `COc1ccc([C@H]2O[C@H](CO)[C@@H](O)[C@H](O[C@H]3O[C@H](CO)[C@@H](O)[C@H](O)[C@@H]3O)[C@@H]2O)cc1O` [Compound 289, (2R,3S,4S,5S,6R)-2-[(2R,3R,4R,5R,6R)-3,5-Dihydroxy-2-(3-hydroxy-4-methoxy-phenyl)-6-(hydroxymethyl)tetrahydropyran-4-yl]oxy-6-(hydroxymethyl)tetrahydropyran-3,4,5-triol]: the IC50 was 175 nM and the Kd is 162 ± 241 nM. The molecule `COc1ccc(C2O[C@H](CO)[C@@H](O)[C@H](O[C@H]3O[C@H](CO)[C@@H](O)[C@H](O)[C@@H]3O)[C@@H]2O)cc1Oc1ccc(NC(=O)C(C)C)cc1` (some centres unmarked) [Compound 290] registered an IC50 of 29 nM and a Kd of 11.9 ± 4.9 nM. In the case of `CNC(=O)c1cccc(Oc2ccc([C@H]3O[C@H](CO)[C@@H](O)[C@H](O)[C@@H]3O)cc2)c1` [Compound 292, N-methyl-3-(4-((2R,3S,4R,5S,6R)-3,4,5-trihydroxy-6-(hydroxymethyl)tetrahydro-2H-pyran-2-yl)phenoxy)benzamide], binding was characterised by a dissociation constant (Kd) of 6 ± 0.4 nM. `COC(=O)Cc1cccc(Oc2ccc([C@H]3O[C@H](CO)[C@@H](O)[C@H](O)[C@@H]3O)cc2)c1` [Compound 293, methyl 2-(3-(4-((2R,3S,4R,5S,6R)-3,4,5-trihydroxy-6-(hydroxymethyl)tetrahydro-2H-pyran-2-yl)phenoxy)phenyl)acetate] had a Kd of 9 ± 2 nM. In the case of `COC(=O)c1cccc(-c2ccc([C@H]3O[C@H](CO)[C@@H](O)[C@H](O)[C@@H]3O)cc2)c1` [Compound 294, methyl 4′-((2R,3S,4R,5S,6R)-3,4,5-trihydroxy-6-(hydroxymethyl)tetrahydro-2H-pyran-2-yl)-[1,1′-biphenyl]-3-carboxylate], binding was characterised by a dissociation constant (Kd) of 11 ± 3 nM. Take `CNC(=O)c1cccc(-c2ccc([C@H]3O[C@H](CO)[C@@H](O)[C@H](O)[C@@H]3O)cc2)c1` [Compound 295, N-methyl-4′-((2R,3S,4R,5S,6R)-3,4,5-trihydroxy-6-(hydroxymethyl)tetrahydro-2H-pyran-2-yl)-[1,1′-biphenyl]-3-carboxamide]: the Kd turned out to be 12 ± 3 nM. `CNC(=O)c1ccc(-c2ccc([C@H]3O[C@H](CO)[C@@H](O)[C@H](O)[C@@H]3O)cc2)cc1` [Compound 296, N-methyl-4′-((2R,3S,4R,5S,6R)-3,4,5-trihydroxy-6-(hydroxymethyl)tetrahydro-2H-pyran-2-yl)-[1,1′-biphenyl]-4-carboxamide]: the Kd amounted to 5 ± 0.4 nM.
